Reference: PubChem BioAssay AID2060494 (Molecular Pharmacology Branch, DTP, NCI, 2025)

Tested on: 435261-313-R-J1-PDC complex spheroid viability
Experiment: Anticancer human tumor 435261-313-R-J1-PDC patient-derived colon adenocarcinoma cell line growth inhibition [GQUAD]
Conditions: for IC50: curve of first compound; for viability, T/C: stronger effect = lower value; active = viability on the fitted dose curve at most 10% of control; inactive = the rest
Outline: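 Viability of tumor cells grown as complex spheroids with endothelial and stromal cells, exposed to drug combinations. Top concentration at or near clinical Cmax (else 10 microM), diluted in half-log increments.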

[1] = second compound 0.0316 µM, first compound 0.0316 µM
[2] = second compound 0.0316 µM, first compound 0.1 µM
[3] = second compound 0.0316 µM, first compound 0.316 µM
[4] = second compound 0.0316 µM, first compound 1 µM
[5] = second compound 0.0316 µM, first compound 3.16 µM
[6] = second compound 0.0316 µM, first compound 10 µM
[7] = second compound 0.1 µM, first compound 0.0316 µM
[8] = second compound 0.1 µM, first compound 0.1 µM
[9] = second compound 0.1 µM, first compound 0.316 µM
[10] = second compound 0.1 µM, first compound 1 µM
[11] = second compound 0.1 µM, first compound 3.16 µM
[12] = second compound 0.1 µM, first compound 10 µM
[13] = second compound 0.316 µM, first compound 0.0316 µM
[14] = second compound 0.316 µM, first compound 0.1 µM
[15] = second compound 0.316 µM, first compound 0.316 µM
[16] = second compound 0.316 µM, first compound 1 µM
[17] = second compound 0.316 µM, first compound 3.16 µM
[18] = second compound 0.316 µM, first compound 10 µM
[19] = second compound 1 µM, first compound 0.0316 µM
[20] = second compound 1 µM, first compound 0.1 µM
[21] = second compound 1 µM, first compound 0.316 µM
[22] = second compound 1 µM, first compound 1 µM
[23] = second compound 1 µM, first compound 3.16 µM
[24] = second compound 1 µM, first compound 10 µM
[25] = second compound 3.16 µM, first compound 0.0316 µM
[26] = second compound 3.16 µM, first compound 0.1 µM
[27] = second compound 3.16 µM, first compound 0.316 µM
[28] = second compound 3.16 µM, first compound 1 µM
[29] = second compound 3.16 µM, first compound 3.16 µM
[30] = second compound 3.16 µM, first compound 10 µM
[31] = second compound 10 µM, first compound 0.0316 µM
[32] = second compound 10 µM, first compound 0.1 µM
[33] = second compound 10 µM, first compound 0.316 µM
[34] = second compound 10 µM, first compound 1 µM
[35] = second compound 10 µM, first compound 3.16 µM
[36] = second compound 10 µM, first compound 10 µM
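Note: spheroids exposed to the agents for seven days before readout.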
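Throughout, for viability, T/C: percent of vehicle control viability with DMSO wells as 100%.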

C#Cc1c(F)ccc2cc(O)cc(-c3ncc4c(N5CC6CCC(C5)N6)nc(OCC56CCCN5CC(F)C6)nc4c3F)c12 (stereo not drawn) + CN(C)c1ccc(Nc2c3ccc(NC(=O)CCN4CCCC4)cc3nc3cc(NC(=O)CCN4CCCC4)ccc23)cc1
active: viability, T/C [30] 9.31% | viability, T/C [36] 0.2%
inactive: viability, T/C [1] 77% | viability, T/C [2] 118% | viability, T/C [3] 114% | viability, T/C [4] 58.1% | viability, T/C [5] 64.9% | viability, T/C [6] 48.8% | viability, T/C [7] 123% | viability, T/C [8] 110% | viability, T/C [9] 94.6% | viability, T/C [10] 99.6% | viability, T/C [11] 66.1% | viability, T/C [12] 60.5% | viability, T/C [13] 89.3% | viability, T/C [14] 130% | viability, T/C [15] 82% | viability, T/C [16] 78% | viability, T/C [17] 50.7% | viability, T/C [18] 64% | viability, T/C [19] 82.5% | viability, T/C [20] 87.9% | viability, T/C [21] 103% | viability, T/C [22] 64.5% | viability, T/C [23] 62.4% | viability, T/C [24] 54.7% | viability, T/C [25] 67.8% | viability, T/C [26] 65.8% | viability, T/C [27] 42.2% | viability, T/C [28] 42.5% | viability, T/C [29] 56.7% | viability, T/C [31] 44.2% | viability, T/C [32] 73.5% | viability, T/C [33] 42.1% | viability, T/C [34] 23.6% | viability, T/C [35] 19.8%
0.199 µM: IC50 (second compound 10 µM)
> 10 µM: IC50 (second compound 0.0316 µM) | IC50 (second compound 0.1 µM) | IC50 (second compound 0.316 µM) | IC50 (second compound 1 µM)
3.58 µM: IC50 (second compound 3.16 µM)

CC(=O)O[C@H]1C(=O)[C@@]2(C)[C@H]([C@H](OC(=O)c3ccccc3)[C@]3(O)C[C@H](OC(=O)[C@H](O)[C@@H](NC(=O)c4ccccc4)c4ccccc4)C(C)=C1C3(C)C)[C@]1(OC(C)=O)CO[C@@H]1C[C@@H]2O + CN(C)c1ccc(Nc2c3ccc(NC(=O)CCN4CCCC4)cc3nc3cc(NC(=O)CCN4CCCC4)ccc23)cc1
inactive: viability, T/C [1] 94.3% | viability, T/C [2] 78.6% | viability, T/C [3] 84.6% | viability, T/C [4] 69.9% | viability, T/C [5] 69.1% | viability, T/C [6] 76.5% | viability, T/C [7] 71.9% | viability, T/C [8] 72.5% | viability, T/C [9] 77.4% | viability, T/C [10] 62% | viability, T/C [11] 75.3% | viability, T/C [12] 70.5% | viability, T/C [13] 72.5% | viability, T/C [14] 82.5% | viability, T/C [15] 73.7% | viability, T/C [16] 69.2% | viability, T/C [17] 68.4% | viability, T/C [18] 61.5% | viability, T/C [19] 80.4% | viability, T/C [20] 61.5% | viability, T/C [21] 59.4% | viability, T/C [22] 63.5% | viability, T/C [23] 73.3% | viability, T/C [24] 63.6% | viability, T/C [25] 52.3% | viability, T/C [26] 52.6% | viability, T/C [27] 48.6% | viability, T/C [28] 60.9% | viability, T/C [29] 52.8% | viability, T/C [30] 55.1% | viability, T/C [31] 31.6% | viability, T/C [32] 19.9% | viability, T/C [33] 23.6% | viability, T/C [34] 21.2% | viability, T/C [35] 27.5% | viability, T/C [36] 16.8%
< 0.0316 µM: IC50 (second compound 10 µM)
> 10 µM: IC50 (second compound 0.0316 µM) | IC50 (second compound 0.1 µM) | IC50 (second compound 0.316 µM) | IC50 (second compound 1 µM) | IC50 (second compound 3.16 µM)

COc1cccc2c1C(=O)c1c(O)c3c(c(O)c1C2=O)CC(O)(C(=O)CO)CC3OC1CC(N)C(O)C(C)O1 (stereo not drawn) + CN(C)c1ccc(Nc2c3ccc(NC(=O)CCN4CCCC4)cc3nc3cc(NC(=O)CCN4CCCC4)ccc23)cc1
inactive: viability, T/C [1] 83.2% | viability, T/C [2] 71.2% | viability, T/C [3] 65.4% | viability, T/C [4] 26.9% | viability, T/C [7] 73.4% | viability, T/C [8] 87% | viability, T/C [9] 78.7% | viability, T/C [10] 32.1% | viability, T/C [13] 76.3% | viability, T/C [14] 79.1% | viability, T/C [15] 70.5% | viability, T/C [16] 31.5% | viability, T/C [19] 83% | viability, T/C [20] 69.8% | viability, T/C [21] 58.7% | viability, T/C [22] 31.9% | viability, T/C [25] 46.8% | viability, T/C [26] 62.5% | viability, T/C [27] 42% | viability, T/C [28] 16.4% | viability, T/C [31] 37.7% | viability, T/C [32] 28% | viability, T/C [33] 17.7% | viability, T/C [34] 12%
0.491 µM: IC50 (second compound 0.0316 µM)
0.582 µM: IC50 (second compound 0.316 µM)
0.439 µM: IC50 (second compound 1 µM)
< 0.0316 µM: IC50 (second compound 10 µM)
0.152 µM: IC50 (second compound 3.16 µM)
active: viability, T/C [5] 2.29% | viability, T/C [6] 5.25% | viability, T/C [11] 3.52% | viability, T/C [12] 4.61% | viability, T/C [17] 2.47% | viability, T/C [18] 2.91% | viability, T/C [23] 1.79% | viability, T/C [24] 3.08% | viability, T/C [29] 1.33% | viability, T/C [30] 3.49% | viability, T/C [35] 2.28% | viability, T/C [36] 3.53%
0.644 µM: IC50 (second compound 0.1 µM)

O=c1[nH]cc(F)c(=O)[nH]1 + CN(C)c1ccc(Nc2c3ccc(NC(=O)CCN4CCCC4)cc3nc3cc(NC(=O)CCN4CCCC4)ccc23)cc1
< 0.0316 µM: IC50 (second compound 10 µM)
> 10 µM: IC50 (second compound 0.0316 µM) | IC50 (second compound 0.1 µM) | IC50 (second compound 0.316 µM) | IC50 (second compound 1 µM) | IC50 (second compound 3.16 µM)
inactive: viability, T/C [1] 118% | viability, T/C [2] 102% | viability, T/C [3] 105% | viability, T/C [4] 90.8% | viability, T/C [5] 71.6% | viability, T/C [6] 99.9% | viability, T/C [7] 117% | viability, T/C [8] 114% | viability, T/C [9] 126% | viability, T/C [10] 86.8% | viability, T/C [11] 86.9% | viability, T/C [12] 78.6% | viability, T/C [13] 104% | viability, T/C [14] 103% | viability, T/C [15] 87.4% | viability, T/C [16] 97.2% | viability, T/C [17] 111% | viability, T/C [18] 85.8% | viability, T/C [19] 118% | viability, T/C [20] 91.8% | viability, T/C [21] 98.5% | viability, T/C [22] 104% | viability, T/C [23] 81.8% | viability, T/C [24] 73.5% | viability, T/C [25] 73.3% | viability, T/C [26] 78.1% | viability, T/C [27] 73.4% | viability, T/C [28] 63.3% | viability, T/C [29] 70.2% | viability, T/C [30] 60.4% | viability, T/C [31] 29.4% | viability, T/C [32] 66% | viability, T/C [33] 41.8% | viability, T/C [34] 40% | viability, T/C [35] 43.3% | viability, T/C [36] 31.4%
